Measured values: ChEMBL document CHEMBL1201862, “PubChem BioAssay data set” (2004)
Calls of active or inactive are those of the source.

Assays:
[1] = molecular target: NACHT, LRR and PYD domains-containing protein 1 (Homo sapiens, UniProt Q9C000); experiment: NALP1 inhibitors in yeast, dose response, luminescent (AID 488860); format: functional
Saccharomyces cerevisiae = experiment: NALP1 inhibitor project selectivity study, Caspase-1/ASC signal blockade IC50 in S. cerevisiae (AID 488863); format: functional, organism-based
[2] = molecular target: T1, Ubiquitin-conjugating enzyme E2 N (Homo sapiens, UniProt P61088); format: functional;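 note: Dose-response confirmation in a TR-FRET assay detecting UBC13-driven polyubiquitin chain formation, inhibition measured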
T1 sequence (P61088 whole entry): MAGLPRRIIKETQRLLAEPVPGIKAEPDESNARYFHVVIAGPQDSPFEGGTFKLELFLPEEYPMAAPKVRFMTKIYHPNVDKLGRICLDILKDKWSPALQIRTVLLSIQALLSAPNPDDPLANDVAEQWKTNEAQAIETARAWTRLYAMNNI

BJ [3] = experiment: cells; format: functional, cell-based; conditions: Homo sapiens
[4] = luciferase reporter signal reduction – luminescence, H4-C neuroglioblastoma cells, dose response (AID 2458); format: functional, cell-based;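 note: H4 neuroglioblastoma cells stably carrying a luciferase reporter gene fusion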
[5] = inhibitors of SNCA 5'UTR-driven reporter translation, confirmation, H4 neuroglioma cells, luminescence (AID 1988); format: functional, cell-based
cells = format: functional, cell-based
J774.A1 = experiment: Confirmation of image-based Screening Assay for Inhibitors of Phagocytosis. [Related pubchem assays (depositor defined):AID1029, AID1643]; format: functional, cell-based; conditions: Mus musculus
[6] = cytotoxicity toward DRD oncogenic fibroblasts, dose response, cell-based, non-viral oncogenic, luminescence (AID 1934); format: functional; conditions: Homo sapiens
[7] = inhibitors of firefly luciferase expression or activity, dose response, H4 neuroglioma cells, luminescence (AID 1990); format: functional, cell-based
[8] = Luminescence Cell-Based Dose Response HTS to Identify Inhibitors of 5'UTR Stem-Loop Driven Prion Protein mRNA Translation in H4 Neuroglioblastoma Cells. [Related pubchem assays: 1827 (Project Summary), 1813 (Primary HTS)]; format: functional
BJ [9] = experiment: cytotoxicity toward BJ-TERT-LT-ST fibroblasts, dose response, cell-based, RAS-independent, luminescence (AID 1935); format: functional; conditions: Homo sapiens;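 note: BJ fibroblasts immortalized with TERT plus LT and ST oncogenes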
[10] = inhibitors of SNCA 5'UTR-driven translation, confirmation, luminescence, H4 neuroglioblastoma cells, dose confirmation (AID 2454); format: functional, cell-based;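 note: H4 neuroglioblastoma cells carrying an alpha-synuclein 5'UTR luciferase reporter; potency for inhibition of the luciferase signal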
BJ [11] = experiment: cytotoxicity toward BJ-TERT fibroblasts, dose response, cell-based, RAS-independent, luminescence (AID 1933); format: functional; conditions: Homo sapiens
[12] = inhibitors of Vif binding to APOBEC3G peptide, primary screen, biochemical, TR-FRET, GST-Vif 1-94, biotin-A3G peptide, dose response retest (AID 1117319); format: functional;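 note: TR-FRET signal of purified GST-Vif binding a biotinylated A3G peptide; inhibitors lower the FRET signal by blocking Vif and A3G binding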
CAAX prenyl protease 2 [13] = molecular target: T2, CAAX prenyl protease 2 (Homo sapiens, UniProt Q9Y256); experiment: human Rce1 protease inhibitors, dose response, biochemical, yeast membranes, quenched-peptide fluorescence, cherry-pick (AID 588849)
T2 sequence (Q9Y256 whole entry): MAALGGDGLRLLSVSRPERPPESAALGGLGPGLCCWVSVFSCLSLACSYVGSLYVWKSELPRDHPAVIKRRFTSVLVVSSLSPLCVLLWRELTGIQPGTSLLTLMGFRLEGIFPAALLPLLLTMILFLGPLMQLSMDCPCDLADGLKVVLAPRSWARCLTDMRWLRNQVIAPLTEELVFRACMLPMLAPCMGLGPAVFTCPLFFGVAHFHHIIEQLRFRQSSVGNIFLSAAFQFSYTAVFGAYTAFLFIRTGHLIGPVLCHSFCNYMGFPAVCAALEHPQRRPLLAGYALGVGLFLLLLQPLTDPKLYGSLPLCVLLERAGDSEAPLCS

Trypsin = Trypsin (Sus scrofa, UniProt P00761); experiment: porcine trypsin inhibitors, dose response, selectivity assay for Rce1 protease inhibitor project, biochemical, quenched peptide fluorescence, cherry-pick (AID 488789)
CAAX prenyl protease 1 = CAAX prenyl protease 1 (Saccharomyces cerevisiae S288c, UniProt P47154); experiment: Ste24 protease inhibitors, dose response, biochemical, S. cerevisiae, plate reader, cherry-pick (AID 488815)
CAAX prenyl protease 2 [14] = molecular target: CAAX prenyl protease 2 (Saccharomyces cerevisiae S288c, UniProt Q03530); format: biochemical
Protein Rev = Protein Rev (Human immunodeficiency virus type 1 group M subtype B (isolate HXB2)(HIV-1), UniProt P04618); experiment: inhibitors of Rev binding to RRE RNA, dose response, biochemical, fluorescence polarization, HIV-1 (AID 434976); design: species or system Human immunodeficiency virus 1
[15] = molecular target: T3, Short transient receptor potential channel 4 (Mus musculus, UniProt Q9QUQ5); experiment: mouse TRPC4 channel activators, dose response, cell-based, HEK293 TRPC4/mu-opioid, Fluo-4 calcium (AID 434937); format: functional
T3 sequence (Q9QUQ5 whole entry): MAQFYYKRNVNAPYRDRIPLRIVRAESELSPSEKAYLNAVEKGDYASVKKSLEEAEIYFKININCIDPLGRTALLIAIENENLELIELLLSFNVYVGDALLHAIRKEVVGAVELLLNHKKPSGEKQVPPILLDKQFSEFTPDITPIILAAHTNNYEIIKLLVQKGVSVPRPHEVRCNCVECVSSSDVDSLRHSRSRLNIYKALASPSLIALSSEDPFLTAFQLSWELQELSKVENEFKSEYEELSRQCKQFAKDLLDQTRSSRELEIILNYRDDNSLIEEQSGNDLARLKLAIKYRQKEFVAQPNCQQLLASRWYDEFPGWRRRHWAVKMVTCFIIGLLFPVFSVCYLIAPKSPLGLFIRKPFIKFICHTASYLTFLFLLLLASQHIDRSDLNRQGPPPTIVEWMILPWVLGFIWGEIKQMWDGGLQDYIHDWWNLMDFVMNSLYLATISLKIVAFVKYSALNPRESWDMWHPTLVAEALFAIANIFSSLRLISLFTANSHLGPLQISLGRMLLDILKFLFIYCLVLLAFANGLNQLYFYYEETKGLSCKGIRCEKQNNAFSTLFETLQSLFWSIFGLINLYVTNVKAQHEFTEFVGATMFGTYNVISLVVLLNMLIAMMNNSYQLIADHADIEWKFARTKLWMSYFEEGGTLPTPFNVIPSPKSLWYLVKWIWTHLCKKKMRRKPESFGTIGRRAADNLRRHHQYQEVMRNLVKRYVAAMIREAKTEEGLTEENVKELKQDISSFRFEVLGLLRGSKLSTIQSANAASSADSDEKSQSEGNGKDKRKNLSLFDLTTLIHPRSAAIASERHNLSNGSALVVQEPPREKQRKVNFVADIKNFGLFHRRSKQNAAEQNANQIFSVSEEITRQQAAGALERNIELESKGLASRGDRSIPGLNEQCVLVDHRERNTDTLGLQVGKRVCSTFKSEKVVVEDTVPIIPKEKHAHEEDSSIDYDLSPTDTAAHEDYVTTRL

[16] = molecular target: Female germline-specific tumor suppressor gld-1 (Caenorhabditis elegans, UniProt Q17339); experiment: inhibitors of GLD-1 binding to TGE RNA, dose response, biochemical, fluorescence polarization, C. elegans (AID 2802);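 note: fluorescence polarization of labeled TGE RNA bound by purified gld-1 protein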
Nonstructural protein 1 = Nonstructural protein 1 (Influenza A virus, UniProt Q194T2); format: functional, Influenza A virus (A/California/07/2009(H1N1))
Sequence of Nonstructural protein 1 (Q194T2 whole entry): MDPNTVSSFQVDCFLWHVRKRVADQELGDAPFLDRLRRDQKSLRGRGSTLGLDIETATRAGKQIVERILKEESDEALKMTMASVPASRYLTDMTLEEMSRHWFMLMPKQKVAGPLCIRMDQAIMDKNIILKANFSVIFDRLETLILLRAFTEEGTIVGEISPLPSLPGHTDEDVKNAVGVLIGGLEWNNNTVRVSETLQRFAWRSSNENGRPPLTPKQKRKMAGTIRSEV

Sequence of NACHT, LRR and PYD domains-containing protein 1 (Q9C000 1-1212 limits assumed): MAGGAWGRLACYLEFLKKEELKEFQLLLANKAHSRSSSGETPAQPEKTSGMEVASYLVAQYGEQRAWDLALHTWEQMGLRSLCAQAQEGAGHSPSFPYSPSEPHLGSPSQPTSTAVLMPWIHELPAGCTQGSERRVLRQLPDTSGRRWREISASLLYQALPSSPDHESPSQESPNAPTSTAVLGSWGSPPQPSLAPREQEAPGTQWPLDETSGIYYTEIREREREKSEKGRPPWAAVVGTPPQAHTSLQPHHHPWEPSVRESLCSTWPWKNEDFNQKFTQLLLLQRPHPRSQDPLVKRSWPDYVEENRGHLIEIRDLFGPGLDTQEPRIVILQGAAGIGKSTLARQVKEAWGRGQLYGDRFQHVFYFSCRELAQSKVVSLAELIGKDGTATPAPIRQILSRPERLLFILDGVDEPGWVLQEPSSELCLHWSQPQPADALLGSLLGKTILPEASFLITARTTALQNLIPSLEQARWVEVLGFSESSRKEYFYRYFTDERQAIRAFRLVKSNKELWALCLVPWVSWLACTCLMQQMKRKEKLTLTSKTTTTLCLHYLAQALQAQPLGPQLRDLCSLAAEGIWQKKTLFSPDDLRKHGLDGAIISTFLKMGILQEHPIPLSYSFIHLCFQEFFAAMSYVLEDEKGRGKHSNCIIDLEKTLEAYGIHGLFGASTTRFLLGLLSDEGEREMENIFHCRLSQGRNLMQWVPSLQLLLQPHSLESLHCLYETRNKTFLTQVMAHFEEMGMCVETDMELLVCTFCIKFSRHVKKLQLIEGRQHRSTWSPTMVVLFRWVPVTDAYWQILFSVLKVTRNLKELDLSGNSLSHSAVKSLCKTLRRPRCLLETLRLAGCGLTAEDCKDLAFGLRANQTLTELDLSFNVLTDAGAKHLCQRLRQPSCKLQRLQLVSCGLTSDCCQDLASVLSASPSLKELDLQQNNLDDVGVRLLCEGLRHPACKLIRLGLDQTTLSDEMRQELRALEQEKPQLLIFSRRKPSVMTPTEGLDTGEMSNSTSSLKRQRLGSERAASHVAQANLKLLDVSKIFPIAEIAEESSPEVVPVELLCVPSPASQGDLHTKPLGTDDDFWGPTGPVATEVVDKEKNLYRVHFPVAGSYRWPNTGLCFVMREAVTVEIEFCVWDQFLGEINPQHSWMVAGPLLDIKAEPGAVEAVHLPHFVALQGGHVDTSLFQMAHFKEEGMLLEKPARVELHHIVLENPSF
Sequence of NACHT, LRR and PYD domains-containing protein 1 (Q9C000 1213-1473 limits assumed): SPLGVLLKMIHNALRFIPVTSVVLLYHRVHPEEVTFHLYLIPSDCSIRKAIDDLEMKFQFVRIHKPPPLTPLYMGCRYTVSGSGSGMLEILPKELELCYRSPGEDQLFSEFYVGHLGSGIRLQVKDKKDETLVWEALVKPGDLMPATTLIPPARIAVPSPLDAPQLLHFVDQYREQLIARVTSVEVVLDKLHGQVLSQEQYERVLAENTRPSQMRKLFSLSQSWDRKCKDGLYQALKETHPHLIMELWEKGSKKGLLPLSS
Sequence of Female germline-specific tumor suppressor gld-1 (Q17339 whole entry): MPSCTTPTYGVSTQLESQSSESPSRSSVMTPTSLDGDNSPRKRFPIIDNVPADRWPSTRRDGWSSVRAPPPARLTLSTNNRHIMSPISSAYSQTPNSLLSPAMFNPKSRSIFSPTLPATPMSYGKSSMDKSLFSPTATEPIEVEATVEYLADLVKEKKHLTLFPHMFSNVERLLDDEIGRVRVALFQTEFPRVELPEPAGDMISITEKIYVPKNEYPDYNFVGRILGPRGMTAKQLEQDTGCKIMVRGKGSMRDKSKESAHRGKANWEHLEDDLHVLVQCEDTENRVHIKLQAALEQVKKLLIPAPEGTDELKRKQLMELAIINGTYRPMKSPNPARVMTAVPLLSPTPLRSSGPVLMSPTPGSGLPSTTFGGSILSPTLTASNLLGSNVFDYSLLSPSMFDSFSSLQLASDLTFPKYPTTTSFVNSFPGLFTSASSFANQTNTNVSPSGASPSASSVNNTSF
Sequence of CAAX prenyl protease 1 (P47154 whole entry): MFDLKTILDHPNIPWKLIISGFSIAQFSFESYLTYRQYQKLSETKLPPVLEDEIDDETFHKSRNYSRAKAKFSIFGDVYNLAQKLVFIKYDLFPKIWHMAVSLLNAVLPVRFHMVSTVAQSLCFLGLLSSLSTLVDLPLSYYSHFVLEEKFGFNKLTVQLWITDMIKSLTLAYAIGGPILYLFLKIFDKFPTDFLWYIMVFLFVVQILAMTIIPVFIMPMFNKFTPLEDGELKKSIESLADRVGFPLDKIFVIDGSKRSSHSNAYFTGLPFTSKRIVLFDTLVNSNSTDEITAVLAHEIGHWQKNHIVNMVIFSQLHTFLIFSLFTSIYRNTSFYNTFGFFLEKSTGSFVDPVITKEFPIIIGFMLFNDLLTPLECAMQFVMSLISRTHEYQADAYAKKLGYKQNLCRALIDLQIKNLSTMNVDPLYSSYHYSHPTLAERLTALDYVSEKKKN
Sequence of Protein Rev (P04618 whole entry): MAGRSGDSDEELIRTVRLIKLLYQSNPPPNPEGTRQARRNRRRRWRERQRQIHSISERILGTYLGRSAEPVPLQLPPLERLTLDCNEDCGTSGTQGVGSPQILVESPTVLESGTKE
Sequence of CAAX prenyl protease 2 (Saccharomyces cerevisiae S288c, UniProt Q03530) (Q03530 whole entry): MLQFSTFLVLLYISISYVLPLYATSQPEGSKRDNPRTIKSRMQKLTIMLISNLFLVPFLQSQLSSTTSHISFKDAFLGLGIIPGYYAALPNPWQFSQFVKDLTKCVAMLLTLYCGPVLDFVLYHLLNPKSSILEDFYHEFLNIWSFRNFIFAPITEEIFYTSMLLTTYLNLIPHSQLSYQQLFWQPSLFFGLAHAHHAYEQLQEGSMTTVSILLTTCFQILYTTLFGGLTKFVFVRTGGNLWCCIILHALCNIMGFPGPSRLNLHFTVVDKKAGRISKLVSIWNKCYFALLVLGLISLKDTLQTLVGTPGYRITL
Sequence of Trypsin (P00761 whole entry): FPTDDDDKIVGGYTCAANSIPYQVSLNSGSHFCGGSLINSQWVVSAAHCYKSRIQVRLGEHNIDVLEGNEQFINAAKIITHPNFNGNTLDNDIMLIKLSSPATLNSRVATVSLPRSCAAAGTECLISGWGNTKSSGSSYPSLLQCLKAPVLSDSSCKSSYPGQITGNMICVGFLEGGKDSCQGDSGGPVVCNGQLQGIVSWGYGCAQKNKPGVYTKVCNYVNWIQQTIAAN

**Q.** For `Cc1ccc2nc(N(CCCN(C)C)C(=O)c3sc4ccccc4c3Cl)sc2c1`, which IC50 [1] is on record?
**A.** 16900 nM (active)

**Q.** And the IC50 (Saccharomyces cerevisiae)?
**A.** 6520 nM (active)

**Q.** And the IC50 [2]?
**A.** > 20000 nM (inactive)

**Q.** With `COC(=O)Nc1nc(-c2ccccc2)c(C(=O)c2ccccc2)s1` as the molecule, how does the EC50 (BJ [3]) read?
**A.** 1560 nM (active)

**Q.** What about the EC50 [4] of the same molecule?
**A.** 1040 nM (active)

**Q.** And the EC50 [5]?
**A.** < 100 nM (active)

**Q.** And the EC50 (cells)?
**A.** 1190 nM (active)

**Q.** And the IC50 (J774.A1)?
**A.** > 25000 nM (inactive)

**Q.** What about the EC50 [6] of the same molecule?
**A.** 1040 nM (active)

**Q.** What about the EC50 [7] of the same molecule?
**A.** 1730 nM (active)

**Q.** And the EC50 [8]?
**A.** < 100 nM (active)

**Q.** And the EC50 (BJ [9])?
**A.** 479 nM (active)

**Q.** And the EC50 [10]?
**A.** 1360 nM (active)

**Q.** What about the EC50 (BJ [11]) of the same molecule?
**A.** 676 nM (active)

**Q.** What does the source list for `CC(=O)Nc1ccc(S(=O)(=O)Nc2cccc(-c3nc4ccccc4o3)c2)cc1`?
**A.** IC50 [12]: > 100000 nM (active); AC50 (CAAX prenyl protease 2 [13]): 7750 nM (active); AC50 (Trypsin): 5890 nM (active); AC50 (CAAX prenyl protease 1): 7830 nM (active); AC50 (CAAX prenyl protease 2 [14]): 14400 nM (active)

**Q.** Which IC50 (Protein Rev) does the source give for `Cc1ccc(N2CCN(c3ccc(NCc4nc5ccccc5n4C)cc3)CC2)cc1` here?
**A.** 19600 nM (not active)

**Q.** And the EC50 [15]?
**A.** 1060 nM (active)

**Q.** What about the IC50 [16] of the same molecule?
**A.** > 2210 nM (active)

**Q.** What about the IC50 (Nonstructural protein 1) of the same molecule?
**A.** 75600 nM (active)
